Results on 22 compounds are retold here after patent US6022969A, “Compositions and methods for treating mast-cell mediated conditions” (AXYS Pharmaceuticals, Inc., priority 1995, dated 2000).

This experiment has as its target tryptase. Briefly: In vitro tryptase inhibition assay (hydrolysis of tosyl-Gly-Pro-Lys-p-nitroanilide). In kind it is biochemical, human. The settings on record: tosyl-Gly-Pro-Lys-p-nitroanilide 0.5 mM, pH 8.2, 1 h pre-incubation, room temperature. Here is the method: The compounds to be assayed (approximately 1 mg) were dissolved in 200 μL dimethylsulfoxide (DMSO) and diluted 1:10 into buffer containing 50 millimolar (mM) Tris-HCl (pH 8.2), 100 mM sodium chloride, and 0.05% polyoxyethylenesorbitan monolaurate (Tween-20®, available from Sigma, St. Louis, Mo.). Seven additional threefold dilutions were made from the initial dilution into the same buffer supplemented with 10% DMSO. Aliquots (50 microliters, μL) from each of the eight dilutions in the series were transferred to individual wells in a 96-well U-bottom microtiter plate. 25 μL of a stock solution of tryptase was added to each well and the samples were mixed and incubated for one hour at room temperature (tryptase was purified from human lung and skin tissue preparations, HMC-1 (human mast cell line) and also obtained from commercial sources (ICN Biomedicals, Irvine, Calif.; Athens Research & Technology, Athens, Ga.)). […] The tryptase solution was prepared by placing 60 μg/mL of tryptase into solution with 10 mM MES (2-[N-Morpholino]ethane sulfonic acid) containing 2 mM CaCl2, 20% glycerol and 50 μg/mL heparin. The enzyme reaction was initiated with the addition of the synthetic tripeptide substrate, tosyl-Gly-Pro-Lys-p-nitroanilide (available from Sigma, 25 μL; 0.5 mM final concentration).
However, Ki ' varies with the enzyme concentration used in the enzyme assay. […] The y-intercept of a replot of IC50 (ordinate) versus tryptase concentration (abscissa) produces a value for Ki '.
The inhibition constants (Ki ', micromolar (μM)) were determined for the compounds of the present invention.
The compound `N=C(N)Nc1ccc(CNC(=O)CNC(=O)O[C@H]2CCC[C@@H](OC(=O)NCC(=O)NCc3ccc(NC(=N)N)cc3)CCC2)cc1` [Compound 2, cis-1,5-Cyclooctylene bis(4-guanidinobenzylcarbamoylmethylaminocarboxylate)] gave a Ki of 2 nM. This counts as single-digit nanomolar.

The compound `NCC[C@H]1CC[C@H](CC(=O)N2CCN(C(=O)O[C@H]3CCC[C@@H](OC(=O)N4CCN(C(=O)C[C@H]5CC[C@H](CCN)CC5)CC4)CCC3)CC2)CC1` [Compound 20, cis-1,5-cyclooctylene bis{4-[trans-4-(2-aminoethyl)cyclohexylacetyl]-1-piperazinecarboxylate}] returned a Ki of 0.81 nM.

`NCCc1ccc(CNC(=O)N2CCN(C(=O)O[C@H]3CCC[C@@H](OC(=O)N4CCN(C(=O)NCc5ccc(CCN)cc5)CC4)CCC3)CC2)cc1` [Compound 14, cis-1,5-cyclooctylene bis{4-[4-(2-aminoethyl)benzylcarbamoyl]-1-piperazinecarboxylate]]: affinity was put at a Ki of 1300 nM.

On to `N=C(N)Nc1ccc(CNC(=O)N2CCN(C(=O)C3CCCCC3C(=O)N3CCN(C(=O)NCc4ccc(NC(=N)N)cc4)CC3)CC2)cc1` (stereo not shown) [Compound 46, 1,2-cyclohexylene bis[4-(4-guanidinobenzylcarbamoyl)-1-piperazinecarboxadehyde]], for which the inhibition constant (Ki) stood at 772 nM.

For `CN(CCOC(=O)NC[C@H]1CC[C@H](CN)CC1)C(=O)O[C@H]1CCC[C@@H](OC(=O)N(C)CCOC(=O)NC[C@H]2CC[C@H](CN)CC2)CCC1` [Compound 41, cis-1,5-cyclooctylene bis[N-2-(trans-4-aminomethylcyclohexylmethylaminoformyloxy)ethyl-N-methylaminocarboxylate}], the inhibition constant (Ki) was found to be 1100 nM.

As for `N=C(N)Nc1ccc(CCC(=O)N2CCN(C(=O)O[C@H]3CCC[C@@H](OC(=O)N4CCN(C(=O)CCc5ccc(NC(=N)N)cc5)CC4)CCC3)CC2)cc1` [Compound 11, cis-1,5-cyclooctylene bis[4-[3-(4-guanidinophenyl)propionyl]-1-piperazinecarboxylate}], the inhibitory constant (Ki) turned out to be 207 nM.

`NCCCCCNC(=O)N1CCN(C(=O)O[C@H]2CCC[C@@H](OC(=O)N3CCN(C(=O)NCCCCCN)CC3)CCC2)CC1` [Compound 34, cis-1,5-cyclooctylene bis[4-(5-aminopentylcarbamoyl)-1-piperazinecarboxylate]] showed a Ki of 11 nM. Compared with the last compound, the Ki is about 19-fold lower.

With `N=C(N)C1CCN(C(=O)NCC2CCN(C(=O)O[C@H]3CCC[C@@H](OC(=O)N4CCC(CNC(=O)N5CCC(C(=N)N)CC5)CC4)CCC3)CC2)CC1` [Compound 45, cis-1,5-cyclooctylene bis[4-(4-amidinopiperid-1-ylcarbonylaminomethyl)-1-piperidinecarboxylate]], the Ki worked out at 114 nM.

Regarding `NCCC1CCC(C(=O)N2CCN(C(=O)O[C@H]3CCC[C@@H](OC(=O)N4CCN(C(=O)C5CCC(CCN)CC5)CC4)CCC3)CC2)CC1` (stereo partly drawn) [Compound 22, cis-1,5-cyclooctylene bis{4-[4-(2-aminoethyl)cyclohexylcarbonyl]-1-piperazinecarboxylate]], the Ki is 9 nM.

As to `NC[C@H]1CC[C@H](C(=O)N2CCN(C(=O)O[C@H]3CCC[C@@H](OC(=O)N4CCN(C(=O)[C@H]5CC[C@H](CN)CC5)CC4)CCC3)CC2)CC1` [Compound 9, cis-1,5-cyclooctylene bis[4-(trans-4-aminomethylcyclohexylcarbonyl)-1-piperazinecarboxylate]], the affinity, expressed as Ki, was 493 nM.

Consider `NC[C@H]1CC[C@H](NC(=O)OC2CCN(C(=O)O[C@H]3CCC[C@@H](OC(=O)N4CCC(OC(=O)N[C@H]5CC[C@H](CN)CC5)CC4)CCC3)CC2)CC1` [Compound 39, cis-1,5-cyclooctylene bis[4-(trans-4-aminomethylcyclohexylaminoformyloxy)-1-piperidinecarboxylate]], for which the affinity, expressed as Ki, was 858 nM.

`NCCC1CCN(C(=O)N2CCN(C(=O)O[C@H]3CCC[C@@H](OC(=O)N4CCN(C(=O)N5CCC(CCN)CC5)CC4)CCC3)CC2)CC1` [Compound 19] displayed an inhibition constant Ki of 1510 nM.

The compound `N=C(N)Nc1ccc(C(=O)NCC2CCN(C(=O)O[C@H]3CCC[C@@H](OC(=O)N4CCC(CNC(=O)c5ccc(NC(=N)N)cc5)CC4)CCC3)CC2)cc1` [Compound 48, cis-1,5-cyclooctylene bis[4-(4-guanidinophenylcarbonylaminomethyl)-1-piperidinecarboxylate]] registered a Ki of 2300 nM.

Take `N=C(N)Nc1ccc(CNC(=O)CNC(=O)OC[C@H]2CC[C@H](COC(=O)NCC(=O)NCc3ccc(NC(=N)N)cc3)CC2)cc1` [Compound 1, trans-1,4-Cyclohexylenedimethylene bis(4-guanidinobenzylcarbamoylmethylaminocarboxylate)]: the affinity corresponds to a Ki of 4 nM.

As for `N=C(N)c1ccc(CCNC(=O)N2CCN(C(=O)O[C@H]3CCC[C@@H](OC(=O)N4CCN(C(=O)NCCc5ccc(C(=N)N)cc5)CC4)CCC3)CC2)cc1` [Compound 33, cis-1,5-cyclooctylene bis{4-[2-(4-amidinophenyl)ethylcarbamoyl)-1-piperazinecarboxylate}], the inhibition constant (Ki) turned out to be 440 nM.

In the case of `CC(CN)c1ccc(C(=O)N2CCN(C(=O)O[C@H]3CCC[C@@H](OC(=O)N4CCN(C(=O)c5ccc(C(C)CN)cc5)CC4)CCC3)CC2)cc1` (stereo partly drawn) [Compound 18, cis-1,5-cyclooctylene bis{4-[4-(1-aminoprop-2-yl)benzoyl]-1-piperazinecarboxylate}], the inhibitory constant (Ki) came out at 713 nM.

`N=C(N)Nc1ccc(CNC(=O)N2CCN(C(=O)OC[C@H]3CC[C@@H](COC(=O)N4CCN(C(=O)NCc5ccc(NC(=N)N)cc5)CC4)CC3)CC2)cc1` [Compound 49, cis-1,4-cyclohexylenedimethylene bis[4-(4-guanidinobenzylcarbamoyl)-1-piperazinecarboxylate]] had a Ki of 3.4 nM.

Regarding `N=C(N)c1ccc(C(=O)NCC2CCN(C(=O)O[C@H]3CCC[C@@H](OC(=O)N4CCC(CNC(=O)c5ccc(C(=N)N)cc5)CC4)CCC3)CC2)cc1` [Compound 44, cis-1,5-cyclooctylene bis[4-(4-amidinobenzoylaminomethyl)-1-piperidinecarboxylate]], the affinity, expressed as Ki, was 8 nM.

For the compound `N=C(N)c1ccc(CCC(=O)N2CCN(C(=O)O[C@H]3CCC[C@@H](OC(=O)N4CCN(C(=O)CCc5ccc(C(=N)N)cc5)CC4)CCC3)CC2)cc1` [Compound 6, cis-1,5-cyclooctylene bis{4-[3(4-amidinophenyl)propionoyl]-1-piperazinecarboxylate}], the affinity, expressed as Ki, was 0.37 nM.

With `NC[C@H]1CC[C@H](CNC(=O)N2CCN(C(=O)O[C@H]3CCC[C@@H](OC(=O)N4CCN(C(=O)NC[C@H]5CC[C@H](CN)CC5)CC4)CCC3)CC2)CC1` [Compound 4, cis-1,5-Cyclooctylene bis[4-((trans-4-aminomethylcyclohexylenemethylene)carbamoyl)-1-piperazinecarboxylate]], the inhibition constant (Ki) worked out at 15.8 nM.

The compound “cis-1,5-tetracyclo[3.3.1.1^3,7 ]decylenedimethylene bis[4-(4-guanidinobenzylcarbamoyl)-1-piperazinecarboxaldehyde] [Compound 32]” had an inhibition constant (Ki) of 12.2 nM.

`N=C(N)Nc1ccc(CNC(=O)N2CCN(C(=O)O[C@H]3CCC[C@@H](OC(=O)N4CCN(C(=O)NCCCCN)CC4)CCC3)CC2)cc1` [Compound 51, cis-5-[4-(4-aminobutylcarbamoyl)piperazin-1-ylformyloxy]cyclooctyl 4-(4-guanidinobenzylcarbamoyl)-1-piperazinecarboxylate] showed an inhibition constant (Ki) of 3.8 nM.

Usually Ki stands for the equilibrium dissociation constant of an inhibitor or competing ligand from its target.
